In ChEMBL document CHEMBL5360643, “Cyclic Peptides from the Opportunistic Pathogen Basidiobolus meristosporus” (J Nat Prod, 2023):
In brackets after ≈: the same amount, converted by molar mass.

Key:
[1] = Cytotoxicity against mouse RAW264.7 cells assessed as reduction in cell viability incubated for 24 hrs by CCK-8 assay; assay type: toxicity, cell-based
[2] = Cytotoxicity against human HEK293T cells assessed as reduction in cell viability incubated for 24 hrs by CCK-8 assay; assay type: toxicity, cell-based, HEK-293T
[3] = Cytotoxicity against human HepG2 cells assessed as reduction in cell viability incubated for 24 hrs by CCK-8 assay; assay type: toxicity, cell-based

For CC[C@H](C)[C@@H]1NC(=O)[C@H](Cc2ccccc2)NC(=O)[C@@H]2C[C@]3(O)c4ccccc4N[C@H]3N2C(=O)[C@H]([C@@H](C)O)NC(=O)[C@@H](Cc2ccc(O)cc2)NC1=O, the IC50 at 24 h [1] was 182 µg/mL (≈ 251 µM), the IC50 at 24 h [2] was 148 µg/mL (≈ 203 µM) and the IC50 at 24 h [3] was 110 µg/mL (≈ 151 µM).
CC(C)C[C@H]1NC(=O)[C@H](Cc2ccccc2)NC(=O)[C@H](Cc2c[nH]c3ccccc23)NC(=O)[C@@H](C(C)C)NC(=O)[C@H](C(C)C)NC(=O)[C@@H](C)NC1=O showed an IC50 at 24 h [1] of 7.7 µg/mL (≈ 10.8 µM), an IC50 at 24 h [2] of 150 µg/mL (≈ 210 µM) and an IC50 at 24 h [3] of 125 µg/mL (≈ 174 µM).
Work on COc1cc([C@@H]2c3cc4c(cc3[C@H](O)[C@H]3COC(=O)[C@H]23)OCO4)cc(OC)c1OC [PODOFILOX] yielded an IC50 at 24 h [1] of 61.3 µg/mL (≈ 148 µM), an IC50 at 24 h [2] of 20 µg/mL (≈ 48.3 µM) and an IC50 at 24 h [3] of 19.6 µg/mL (≈ 47.3 µM).
With CC[C@H](C)[C@@H]1NC(=O)[C@H](Cc2ccccc2)NC(=O)[C@H](Cc2c[nH]c3ccccc23)NC(=O)[C@@H]([C@@H](C)O)NC(=O)[C@@H](Cc2ccc(O)cc2)NC1=O the IC50 at 24 h [1] was 17.2 µg/mL (≈ 24.2 µM), the IC50 at 24 h [2] was 6 µg/mL (≈ 8.44 µM) and the IC50 at 24 h [3] was 29.6 µg/mL (≈ 41.6 µM).
